Data on 102 molecules can be found in PubChem BioAssay AID1996.

Molecules are shown by their SMILES. In brackets after ≈: the same amount, converted by molar mass.

The conditions of this series: buffer; pH 7.4; 200.0 µM.
The term solubility (kinetic) denotes the concentration staying in solution when a stock, usually in DMSO, is diluted into the medium. For `CC(=O)c1cccc(OCCCOc2cccc3cccnc23)c1`, the kinetic solubility is 37.2 µg/mL (≈ 116 µM).
The result for `O=C(NCCCNC(=O)c1cccnc1)c1ccc(Cl)cc1` reads 43.3 µg/mL (≈ 136 µM).
The result for `COCCCNC(=O)/C(C#N)=C/c1ccc(F)cc1` reads 38.4 µg/mL (≈ 146 µM); that for `CCC(C(=O)OC)(C(=O)OC)c1ccc([N+](=O)[O-])cc1`, > 42.2 µg/mL.
Molecule `Cc1cc(C)cc(Nc2ccc3nonc3c2[N+](=O)[O-])c1` gave a solubility (kinetic) of 1.1 µg/mL (≈ 3.87 µM).
The result for `O=C(Nc1cccnc1)C1CC(=O)N(c2ccc(F)cc2)C1` (configuration not stated) reads > 44.9 µg/mL; that for `C#CCOc1ccccc1C(N)=O`, 25.3 µg/mL (≈ 144 µM); that for `O=C(O)CCN1C(=O)C2C3c4ccccc4C(c4ccccc43)C2C1=O` (configuration not stated), > 52.1 µg/mL.
With `CCC(C)C(Nc1ncnc2scc(-c3ccccc3)c12)C(=O)O` (configuration not stated) the figure was > 51.2 µg/mL; with `CCCOc1ccc(-c2csc3nc[nH]c(=O)c23)cc1`, 2.9 µg/mL (≈ 10.1 µM).
The result for `Cn1cnc2cc(NCc3cccs3)ccc21` reads 27.1 µg/mL (≈ 111 µM); that for `CS(=O)(=O)c1ccc(NCCc2ccccn2)c([N+](=O)[O-])c1`, 44.2 µg/mL (≈ 138 µM).
In turn, `COC(=O)c1sccc1NC(=O)Nc1ccccc1OC` came in with a kinetic solubility of 40 µg/mL (≈ 131 µM).
Regarding `CNc1cc(Cl)nc(SC)n1`, the kinetic solubility was > 28.4 µg/mL.
With `O=C(CCNC(=O)c1ccccc1)NNC(=O)c1ccccc1Br` the figure was > 58.5 µg/mL; with `O=C(NCC(c1ccco1)N1CCc2ccccc2C1)c1cccc(F)c1` (configuration not stated), 28.7 µg/mL (≈ 78.8 µM).
With `COc1cccc(N2CCN(CC(=O)NC(C)c3ccccc3)CC2)c1` (configuration not stated) the figure was 45 µg/mL (≈ 127 µM); with `O=C(NCc1cccnc1)Nc1cccc(Cl)c1`, 37.2 µg/mL (≈ 142 µM); with `C=CCOc1ccc(/C=C/C(=O)OCC(=O)NC2CCCCCC2)cc1`, < 0.8 µg/mL.
With `Cc1cc(C)c(NC(=O)COC(=O)c2ccncc2)c(C)c1` the figure was 35.6 µg/mL (≈ 119 µM); with `Cc1[nH]c2ccc(F)cc2c1CCN1C(=O)OC(C)(C)C1(C)O` (configuration not stated), > 48.1 µg/mL.
With `COCC(=O)OCc1cc2cccc(C)c2[nH]c1=O`, the solubility (kinetic) worked out at 38.9 µg/mL (≈ 149 µM).
`Cc1cc(C(=O)NCc2cccc(Cl)c2)c2ccccc2n1` yielded a kinetic solubility of 5.3 µg/mL (≈ 17.1 µM).
Regarding `CN1C(=O)NC(c2ccc([N+](=O)[O-])cc2)C2=C1CC(C)(C)CC2=O` (configuration not stated), the kinetic solubility is > 49.4 µg/mL.
With `CC(=O)c1sc(NC(=O)c2ccc(C(C)(C)C)cc2)nc1C` the figure was < 0.3 µg/mL; with `O=C(O)c1ccccc1S(=O)(=O)CC(=O)N1CCCCC1`, > 46.7 µg/mL.
The result for `CO/N=C1\CCn2c1c(C)c1ccccc12` reads 0.8 µg/mL (≈ 3.73 µM); that for `Cc1[nH]c2ccc(C(=O)Nc3ccncc3)cc2c1C`, 34.7 µg/mL (≈ 131 µM).
In the case of `CC(NC(=S)NC(=O)c1cccs1)c1ccccc1` (configuration not stated), the kinetic solubility was found to be 8.2 µg/mL (≈ 28.2 µM).
Regarding `COCCNC(=O)Cn1nc(C)c([N+](=O)[O-])c1C`, the solubility (kinetic) was > 38.4 µg/mL.
Turning to `O=Cc1c(C(=O)O)n(Cc2ccc(F)cc2Cl)c2ccccc12`, the solubility (kinetic) was > 49.8 µg/mL.
`Cc1cccc(NC(=O)c2cc(=O)[nH]c3ccccc23)c1` registered a kinetic solubility of 3.1 µg/mL (≈ 11.1 µM).
`CN(Cc1ccccc1)C(=O)Nc1ccc(Cl)cc1` gave a solubility (kinetic) of 38.5 µg/mL (≈ 140 µM).
In turn, `CCOc1ccc(/C=C/c2[nH]c(=O)[nH]c(=O)c2[N+](=O)[O-])cc1` came in with a solubility (kinetic) of 13.2 µg/mL (≈ 43.5 µM).
As to `Cc1cccc(C)c1NC(=O)COC(=O)c1cc[n+]([O-])cc1`, the solubility (kinetic) is > 45 µg/mL.
In the case of `CN1CCC(N(C)C(=O)c2cc(S(=O)(=O)N3CCOCC3)ccc2Cl)CC1.Cl`, the solubility (kinetic) was > 67.9 µg/mL.
With `COc1ccc(C(C)NC(=O)Cc2cccs2)cc1OC` (configuration not stated) the figure was > 45.8 µg/mL; with `O=C(Cc1ccc(F)cc1)Nc1nc(-c2ccc(F)cc2)cs1`, < 0.4 µg/mL.
With `N#Cc1c(C(F)(F)F)cc(Cc2ccccc2)nc1SCC(=O)NCC(=O)O` the figure was > 61.4 µg/mL; with `O=C(CSc1nc2ncc(Cl)cc2[nH]1)c1ccc2c(c1)OCO2`, 1.8 µg/mL (≈ 5.18 µM); with `O=C(NCCCn1ccnc1)c1ccccc1Br`, > 46.2 µg/mL.
With `Cc1nc(SCC(=O)NCC2CCCO2)c2c(C)c(C)sc2n1` (configuration not stated) the figure was > 52.7 µg/mL.
In the case of `O=C(Nc1ccc(Br)cc1)c1cc(-c2ccncc2)nc2ccccc12`, the solubility (kinetic) amounted to 5.8 µg/mL (≈ 14.3 µM).
Molecule `CSc1ncccc1C(=O)NCCc1ccccc1` returned a solubility (kinetic) of 37.2 µg/mL (≈ 137 µM).
The result for `CC1CC(C)CN(S(=O)(=O)c2cccc3nonc23)C1` (configuration not stated) reads 5.5 µg/mL (≈ 18.6 µM); that for `Cc1nc2ccc(Cl)cc2nc1C`, 9.4 µg/mL (≈ 48.8 µM); that for `COc1ccc(S(=O)(=O)NCCc2c[nH]c3ccc(Cl)cc23)cc1`, 18.6 µg/mL (≈ 51 µM).
Take `Cc1[nH]c2ccccc2c1/C=N/NC(=O)c1ccccc1`: the solubility (kinetic) was > 41.6 µg/mL.
With `COCCCNC(=S)Nc1ccc(C)cc1` the figure was > 35.8 µg/mL.
The result for `O=C(Nc1ccccc1)OCCCc1ccccc1` reads 9.7 µg/mL (≈ 38 µM); that for `COc1ccc(N2CCN(C(=O)c3cc(C)oc3C)CC2)cc1`, 42.2 µg/mL (≈ 134 µM).
The result for `O=C(COC(=O)c1cc(Cl)nc(Cl)c1)Nc1ccc(Cl)c(S(=O)(=O)N2CCOCC2)c1` reads 31.7 µg/mL (≈ 62.3 µM); that for `O=C(CNC(=O)c1ccccc1F)NCc1ccncc1`, > 43.1 µg/mL.
For the molecule `CCCCN1C2=NC(c3ccccc3)CN2c2ccccc21.Cl` (configuration not stated), the kinetic solubility amounted to 44.1 µg/mL.
The result for `NC(=O)C1CCN(C(=O)c2cc3ccccc3cc2O)CC1` reads > 44.8 µg/mL; that for `COc1ccc(NC(=O)C(Cc2ccccc2)n2cccc2)c(OC)c1` (configuration not stated), 12.9 µg/mL (≈ 36.8 µM).
Molecule `COc1ccc(NC(=O)c2ccc(C)cc2)cc1` registered a solubility (kinetic) of 5.4 µg/mL (≈ 22.4 µM).
`NS(=O)(=O)c1ccc(CNC(=O)CSc2nc3ccc(Cl)cc3[nH]2)cc1` registered a kinetic solubility of 10.3 µg/mL (≈ 25.1 µM).
Take `Cn1c(=O)c([N+](=O)[O-])c(NCCCn2ccnc2)c2ccccc21`: the solubility (kinetic) was > 49.1 µg/mL.
Turning to `O=C(NCCCn1ccnc1)c1ccc(-c2ccccc2)cc1`, the kinetic solubility is > 45.8 µg/mL.
Turning to `CCCN(CC(=O)Nc1ccccc1OC)C(=O)c1ccc(=O)[nH]c1`, the kinetic solubility is > 51.5 µg/mL.
The result for `Cc1ccc(NC(=O)COC(=O)C2CC(=O)N(Cc3ccccc3)C2)cc1F` (configuration not stated) reads 46.8 µg/mL (≈ 122 µM); that for `O=[N+]([O-])c1cccc(S(=O)(=O)NCc2ccccn2)c1`, 41.2 µg/mL (≈ 140 µM); that for `COCCOc1ccc(C(F)(F)F)cc1NC(=O)COC(=O)c1ccc(N2CCCC2=O)cc1`, 3 µg/mL (≈ 6.24 µM).
With `CCn1c(SCc2ccc(OC)c(F)c2)nc2ccccc2c1=O` the figure was < 0.4 µg/mL.
With `Cc1cc(NC(=O)CSc2nccn2-c2ccc([N+](=O)[O-])cc2)no1` the figure was 33.8 µg/mL (≈ 94.1 µM); with `O=C(NC1CC1)C1CCN(C(=O)c2ccc(Cl)cc2Cl)CC1`, > 51.2 µg/mL; with `Cc1ccc(NC(=O)CN(C)C(=O)COC(=O)[C@@H](NC(=O)c2ccccc2F)C(C)C)cc1`, > 68.6 µg/mL.
In turn, `O=C(NCc1ccccc1)c1ccccc1Br` gave a kinetic solubility of 36.4 µg/mL (≈ 125 µM).
With `Oc1ccc(F)c2cccnc12` the figure was 5 µg/mL (≈ 30.6 µM); with `Cc1nc(-c2cccc(NC(=O)c3ccco3)c2)cs1`, > 42.6 µg/mL; with `CN1C[C@@H]2C[C@@H](c3cccn3-c3nccs3)N3CCC[C@@]23C1=O`, 47.2 µg/mL (≈ 144 µM).
With `Cc1ccc(CNc2ccc(N3CCOCC3)c(Cl)c2)cc1` the figure was 1.7 µg/mL (≈ 5.37 µM).
The result for `O=C(CNC(=O)COc1ccccc1)NCc1cccnc1` reads > 44.9 µg/mL.
Take `Cc1ccc(C2NC(=S)NC3=C2C(=O)CCC3)cc1` (configuration not stated): the solubility (kinetic) amounted to 9 µg/mL (≈ 33 µM).
With `COc1ccc(-c2noc(CCCC(=O)N3CCOCC3)n2)cc1` the figure was 49.6 µg/mL (≈ 150 µM); with `O=C(NCc1ccco1)c1ccc(COc2ccccc2[N+](=O)[O-])o1`, > 51.3 µg/mL; with `N#Cc1ccc(/C=C/C(=O)c2ccc3c(c2)OCO3)cc1`, 2.9 µg/mL (≈ 10.5 µM).
Molecule `Cc1cc(C)c2c(n1)sc1c(N3CCN(C)CC3)ncnc12` came in with a kinetic solubility of 39.6 µg/mL (≈ 126 µM).
The result for `S=C(NCc1ccco1)Nc1cccc(Cl)c1Cl` reads 11.3 µg/mL (≈ 37.5 µM); that for `N#CCc1cc2ccc3cccc4ccc(c1)c2c34`, < 0.5 µg/mL.
With `NC(=O)c1ccccc1NCC(=O)c1ccc(Cl)cc1` the figure was 2.9 µg/mL (≈ 10 µM); with `O=c1c2ccccc2[nH]c(=S)n1-c1cccnc1`, 7.6 µg/mL (≈ 29.8 µM); with `O=C(O)c1ccc(NCCc2ccc(Cl)cc2)c([N+](=O)[O-])c1`, 44.6 µg/mL (≈ 139 µM).
The result for `Cc1cccc(C)c1N1C(=O)CN(Cc2ccccc2)C1=S` reads 27.8 µg/mL (≈ 89.6 µM); that for `CC(=O)OC(CC(=O)O)C[N+](C)(C)C.[Cl-]` (configuration not stated), > 36 µg/mL.
With `O=C(COC(=O)c1c[nH]c2ccccc12)Nc1ccccc1`, the kinetic solubility was 1.9 µg/mL (≈ 6.46 µM).
For `O=S(=O)(NCc1ccc2c(c1)OCO2)c1ccc(F)cc1`, the kinetic solubility was > 46.4 µg/mL.
With `O=c1[nH]c(/C=C/c2ccccc2Cl)c([N+](=O)[O-])c(=O)[nH]1` the figure was > 44.1 µg/mL; with `CCSc1nnc(NC(=O)c2c(C)noc2C)s1`, > 42.7 µg/mL; with `Cc1cnc(C(=O)OCC(=O)c2ccc(-c3ccccc3)cc2)cn1`, 7.7 µg/mL (≈ 23.2 µM).
`CS(=O)(=O)Cc1ccc(C(=O)NC2CCCc3ccccc32)cc1` (configuration not stated) returned a kinetic solubility of 9.6 µg/mL (≈ 28 µM).
Regarding `O=C(Nc1ccc(F)cc1F)c1ccc2ncsc2c1`, the kinetic solubility was 27.4 µg/mL (≈ 94.4 µM).
Take `CCCCN(c1ccccc1)S(=O)(=O)c1cccc2cccnc12`: the solubility (kinetic) came out at 9 µg/mL (≈ 26.4 µM).
The result for `CN(CC(=O)NCc1ccccc1Cl)CC(=O)Nc1cccc(F)c1` reads > 54.6 µg/mL.
For `COc1ccc(NS(=O)(=O)c2ccc(N3CCCC3)c(NC(=S)Nc3cccc(C)c3C)c2)cc1`, the solubility (kinetic) worked out at 7.6 µg/mL (≈ 14.9 µM).
The result for `Brc1ccccc1C1N=C(c2ccccc2)NO1` (configuration not stated) reads 10.5 µg/mL (≈ 34.6 µM); that for `COc1ccc2c(c1)-c1nc(/N=C/c3ccccc3O)sc1CC2`, 44.5 µg/mL (≈ 132 µM).
The result for `Nc1nc(SCC(=O)N2CCCC2)[nH]c(=O)c1NC(=O)c1cccs1` reads > 56.9 µg/mL; that for `O=C(Cn1cccc1C(=O)c1ccccc1)NCc1cccc(Cl)c1`, < 0.4 µg/mL.
On to `COc1cc(/C=C2\SC(=O)N(CCNC(=O)c3c(C)noc3C)C2=O)cc(OC)c1OC`, for which the kinetic solubility is 4.8 µg/mL (≈ 10.4 µM).
For the molecule `COc1ccc(C(=O)N=c2sc3ccccc3n2C)cc1OC`, the solubility (kinetic) was < 0.4 µg/mL.
